In patent US8980910B2, “Treatment of glaucoma” (Indiana University Research and Technology Corporation, priority 2011, dated 2015):
“Also recorded” adds a separate entry of the source.

Experiments:
[1] = test system: isoflurane-anesthetized rats; assay: infusion of bicuculline methiodide into the region of the DMH, simultaneous measurement of blood pressure, heart rate and IOP; format: in vivo, rat; settings: BMI 30 pmol/75 nL into the DMH vs saline vehicle
Method: FIG. 2A-C Simultaneous measurement of blood pressure (FIG. 2A), heart rate (FIG. 2B), and IOP (FIG. 2C) in a series of isoflurane-anesthetized rats after infusion of bicuculline methiodide (30 pmol/75 nL; n=9) or saline vehicle (75 nL; n=10) into the region of the DMH. * indicates a significant difference (p<0.05) between the vehicle treated and the BMI treated group using a repeated measures ANOVA followed by post-hoc analysis for differences between timepoints using a t-test.
To investigate whether orexin containing neurons located in the dorsornedial hypothalamus (DMH) and/or perifornical (PeF) area play a role in mediating the circadian fluctuations in IOP, isoflurane-anesthetized rats were administered orexin inhibitors and their vital functions were monitored.

panic-prone rats = settings: 30 mg/kg i.p. prior to 15 min i.v. infusion of 0.5M sodium lactate
Source text: Panic disorder is associated with disruption of central inhibitory gamma-aminobutyric acid (GABAergic) tone, and may contribute to panic attacks which are consistently provoked by ordinarily mild physical stressors such as mild osmotic disturbances (e.g., intravenous sodium lactate challenges). […] Orexin/hypocretin producing neurons are almost exclusive to dorsomedial hypothalamus/perifornical area and adjacent lateral hypothalamus, and play a critical role in maintaining wakefulness, vigilance and central sympathetic mobilization, which are key components of panic and anxiety. Experiments were conducted to investigate whether the administration of either a systemic orexin 1 antagonist or silencing the hypothalamic orexin gene product with RNA interference could block lactate-induced panic responses.

[2] = test system: isoflurane anesthetized rat; assay: attenuation of physiologic responses to BMI microinjection into the DMH by systemic orexin-1 receptor antagonist; format: in vivo; settings: 30 mg/kg i.p.; BMI 20 pmol/50 nL into the DMH before and after antagonist; FIG. 3; listed as SB334861
Method: FIG. 3 Continuous and simultaneous measurement of blood pressure, heart rate, and core body temperature in an isoflurane anesthetized rat after identical microinjections of BMI (20 pmol/50 nL) into the DMH (time marks 1 and 3) before and after systemic administration of the orexin-1 receptor antagonist SB334861 (30 mg/kg i.p.; time mark 2).
Experiments were then conducted to determine whether an orexin-I receptor antagonist (SB334861) could attenuate the physiologic responses to chemical stimulation of the DMH. To test orexin inhibitors ability to attenuate the BMI stimulated response, BMI was administered to an isoflurane-anesthetized rat both before and after administration of the orexin inhibitor and the responses were monitored.

[3] = target: T1, orexin receptor-1 (ORX 1) (Homo sapiens, UniProt O43613); settings: orexin A relative to orexin B; cited from earlier work
T1 sequence (O43613 1-425): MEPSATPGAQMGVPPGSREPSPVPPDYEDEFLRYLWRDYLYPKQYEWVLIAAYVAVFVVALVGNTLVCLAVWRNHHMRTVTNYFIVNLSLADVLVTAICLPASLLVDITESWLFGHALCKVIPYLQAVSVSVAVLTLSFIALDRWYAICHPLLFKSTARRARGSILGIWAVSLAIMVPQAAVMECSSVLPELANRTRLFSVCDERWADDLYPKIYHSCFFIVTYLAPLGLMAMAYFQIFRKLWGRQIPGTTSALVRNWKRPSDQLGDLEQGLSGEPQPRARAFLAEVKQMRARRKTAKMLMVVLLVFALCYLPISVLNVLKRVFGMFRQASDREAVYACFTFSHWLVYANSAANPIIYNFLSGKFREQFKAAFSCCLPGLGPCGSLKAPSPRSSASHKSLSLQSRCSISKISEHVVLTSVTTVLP

C[N+]1(C)CCc2cc3c(cc2[C@H]1[C@@H]1OC(=O)c2c1ccc1c2OCO1)OCO3.[I-] [BMI, bicuculline methiodide]
blood pressure after chemical stimulation of the DMH ([1]; FIG. 2A): expected increases | heart rate after chemical stimulation of the DMH ([1]; FIG. 2B): expected increases | IOP after chemical stimulation of the DMH ([1]; FIG. 2C): evoked an increase

Cc1nc2ccc(NC(=O)Nc3ccnc4cccnc34)cc2o1 [SB334867, 1-(2-methylbenzoxazol-6-yl)-3-[1,5]naphthyridin-4-yl urea]
lactate induced increases in core body temperature (thermogenic response) (panic-prone rats; FIG. 1C): attenuated; also recorded: blocks | lactate induced increases in heart rate (cardioexcitatory response) (panic-prone rats; FIG. 1D): attenuated; also recorded: blocks | BMI-evoked increase in blood pressure [2]: significant attenuation | BMI-evoked increase in core body temperature [2]: significant attenuation | BMI-evoked increase in heart rate [2]: significant attenuation

orexin A: 33-amino acid neuropeptide, endogenous ligand of orexin receptors (QPLPDCCRQKTCSCRLYELLHGAGNHAAGILTL; Orexin-A; UniProt O43612 34-66, looked up)
affinity of ORX 1 for orexin A greater than for orexin B [3]: 1 order of magnitude
